How the values were obtained:
[1] = tested on: Epidermal growth factor receptor (Homo sapiens), P00533 [L858R,T790M,C797S]; details: dose 500.0 nM
Description: Inhibition of EGFR L858R/T790M/C797S mutant (unknown origin) at 500 nM relative to control

[2] = target: Epidermal growth factor receptor (Homo sapiens, UniProt P00533, C797S/L858R/T790M); experiment: Inhibition of EGFR L858R/T790M/C797S mutant (unknown origin)
[3] = target: Epidermal growth factor receptor (Homo sapiens, UniProt P00533); experiment: Inhibition of wild-type EGFR (unknown origin)
cells = details: Mus musculus, Ba/F3 EGFR-T790M/C797S/L858R
Description: Antiproliferative activity against mouse Ba/F3 EGFR-T790M/C797S/L858R cells

[4] = Potency index, ratio of Brigatinib IC50 to test compound IC50 for antiproliferative activity against mouse Ba/F3 EGFR-T790M/C797S/L858R cells; format: functional

Epidermal growth factor receptor (Homo sapiens, UniProt P00533, C797S/L858R/T790M), sequence (P00533 25-1210 T790M/C797S/L858R limits assumed): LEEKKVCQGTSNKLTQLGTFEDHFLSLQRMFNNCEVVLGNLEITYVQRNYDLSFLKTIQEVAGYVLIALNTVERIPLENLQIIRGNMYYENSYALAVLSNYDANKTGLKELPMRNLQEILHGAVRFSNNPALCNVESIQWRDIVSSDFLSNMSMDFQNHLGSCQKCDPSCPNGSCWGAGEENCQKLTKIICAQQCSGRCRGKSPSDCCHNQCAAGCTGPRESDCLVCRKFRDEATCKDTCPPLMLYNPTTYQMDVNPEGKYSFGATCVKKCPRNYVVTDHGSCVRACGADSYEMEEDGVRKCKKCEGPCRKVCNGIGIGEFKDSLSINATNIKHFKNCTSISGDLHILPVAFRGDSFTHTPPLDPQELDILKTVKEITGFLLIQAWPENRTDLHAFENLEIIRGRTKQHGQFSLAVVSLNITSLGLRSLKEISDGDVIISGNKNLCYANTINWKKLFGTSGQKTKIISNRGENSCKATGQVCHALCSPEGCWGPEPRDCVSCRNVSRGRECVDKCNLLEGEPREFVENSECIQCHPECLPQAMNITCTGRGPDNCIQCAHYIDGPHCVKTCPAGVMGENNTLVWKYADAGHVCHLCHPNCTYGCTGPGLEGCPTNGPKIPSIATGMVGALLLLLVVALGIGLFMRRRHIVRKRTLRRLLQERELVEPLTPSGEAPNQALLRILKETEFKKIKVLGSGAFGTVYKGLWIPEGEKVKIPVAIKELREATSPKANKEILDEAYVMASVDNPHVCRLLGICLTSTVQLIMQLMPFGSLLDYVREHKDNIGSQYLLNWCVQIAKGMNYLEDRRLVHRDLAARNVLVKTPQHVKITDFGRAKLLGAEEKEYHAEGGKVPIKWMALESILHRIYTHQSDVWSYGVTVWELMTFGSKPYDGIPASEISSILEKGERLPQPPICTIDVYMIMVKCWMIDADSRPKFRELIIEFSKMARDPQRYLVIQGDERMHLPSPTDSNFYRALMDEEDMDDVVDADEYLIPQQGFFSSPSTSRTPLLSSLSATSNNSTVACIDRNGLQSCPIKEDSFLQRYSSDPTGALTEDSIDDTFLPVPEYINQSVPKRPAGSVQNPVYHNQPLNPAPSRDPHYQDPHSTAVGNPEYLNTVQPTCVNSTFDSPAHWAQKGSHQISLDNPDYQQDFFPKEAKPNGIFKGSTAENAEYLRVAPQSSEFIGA
Epidermal growth factor receptor (Homo sapiens), P00533 [L858R,T790M,C797S], sequence (P00533 whole entry T790M/C797S/L858R): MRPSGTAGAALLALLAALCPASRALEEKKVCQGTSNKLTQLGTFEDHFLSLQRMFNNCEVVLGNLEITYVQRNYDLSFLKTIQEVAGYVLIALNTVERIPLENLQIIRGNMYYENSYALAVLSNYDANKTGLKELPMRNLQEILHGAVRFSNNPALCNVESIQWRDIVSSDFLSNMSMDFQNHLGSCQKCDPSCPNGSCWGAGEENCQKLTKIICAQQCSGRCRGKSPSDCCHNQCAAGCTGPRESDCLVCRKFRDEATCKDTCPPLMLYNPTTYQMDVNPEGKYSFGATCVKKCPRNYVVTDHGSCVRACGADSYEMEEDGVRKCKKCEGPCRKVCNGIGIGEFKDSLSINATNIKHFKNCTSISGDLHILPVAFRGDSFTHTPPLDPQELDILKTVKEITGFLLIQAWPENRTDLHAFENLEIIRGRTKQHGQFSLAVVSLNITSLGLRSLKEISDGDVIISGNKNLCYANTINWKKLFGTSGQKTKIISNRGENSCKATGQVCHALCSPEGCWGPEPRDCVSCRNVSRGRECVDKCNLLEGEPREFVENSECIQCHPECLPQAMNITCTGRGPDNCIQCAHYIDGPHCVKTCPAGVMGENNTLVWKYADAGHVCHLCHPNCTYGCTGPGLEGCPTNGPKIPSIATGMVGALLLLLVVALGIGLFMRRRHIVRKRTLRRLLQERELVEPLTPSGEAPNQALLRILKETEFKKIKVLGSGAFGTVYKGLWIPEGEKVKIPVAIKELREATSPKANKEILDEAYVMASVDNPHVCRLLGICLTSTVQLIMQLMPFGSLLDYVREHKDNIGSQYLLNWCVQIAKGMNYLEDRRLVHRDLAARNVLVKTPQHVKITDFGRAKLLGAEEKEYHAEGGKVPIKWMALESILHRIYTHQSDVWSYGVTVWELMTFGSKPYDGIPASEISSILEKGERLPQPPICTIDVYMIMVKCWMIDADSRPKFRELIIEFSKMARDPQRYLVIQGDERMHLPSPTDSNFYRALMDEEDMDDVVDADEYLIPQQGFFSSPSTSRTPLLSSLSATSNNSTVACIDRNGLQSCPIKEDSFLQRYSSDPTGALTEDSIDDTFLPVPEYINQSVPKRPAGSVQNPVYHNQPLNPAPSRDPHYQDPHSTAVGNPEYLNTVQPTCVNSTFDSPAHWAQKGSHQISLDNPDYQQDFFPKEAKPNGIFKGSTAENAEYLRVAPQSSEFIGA
Epidermal growth factor receptor (Homo sapiens, UniProt P00533), sequence (P00533 whole entry): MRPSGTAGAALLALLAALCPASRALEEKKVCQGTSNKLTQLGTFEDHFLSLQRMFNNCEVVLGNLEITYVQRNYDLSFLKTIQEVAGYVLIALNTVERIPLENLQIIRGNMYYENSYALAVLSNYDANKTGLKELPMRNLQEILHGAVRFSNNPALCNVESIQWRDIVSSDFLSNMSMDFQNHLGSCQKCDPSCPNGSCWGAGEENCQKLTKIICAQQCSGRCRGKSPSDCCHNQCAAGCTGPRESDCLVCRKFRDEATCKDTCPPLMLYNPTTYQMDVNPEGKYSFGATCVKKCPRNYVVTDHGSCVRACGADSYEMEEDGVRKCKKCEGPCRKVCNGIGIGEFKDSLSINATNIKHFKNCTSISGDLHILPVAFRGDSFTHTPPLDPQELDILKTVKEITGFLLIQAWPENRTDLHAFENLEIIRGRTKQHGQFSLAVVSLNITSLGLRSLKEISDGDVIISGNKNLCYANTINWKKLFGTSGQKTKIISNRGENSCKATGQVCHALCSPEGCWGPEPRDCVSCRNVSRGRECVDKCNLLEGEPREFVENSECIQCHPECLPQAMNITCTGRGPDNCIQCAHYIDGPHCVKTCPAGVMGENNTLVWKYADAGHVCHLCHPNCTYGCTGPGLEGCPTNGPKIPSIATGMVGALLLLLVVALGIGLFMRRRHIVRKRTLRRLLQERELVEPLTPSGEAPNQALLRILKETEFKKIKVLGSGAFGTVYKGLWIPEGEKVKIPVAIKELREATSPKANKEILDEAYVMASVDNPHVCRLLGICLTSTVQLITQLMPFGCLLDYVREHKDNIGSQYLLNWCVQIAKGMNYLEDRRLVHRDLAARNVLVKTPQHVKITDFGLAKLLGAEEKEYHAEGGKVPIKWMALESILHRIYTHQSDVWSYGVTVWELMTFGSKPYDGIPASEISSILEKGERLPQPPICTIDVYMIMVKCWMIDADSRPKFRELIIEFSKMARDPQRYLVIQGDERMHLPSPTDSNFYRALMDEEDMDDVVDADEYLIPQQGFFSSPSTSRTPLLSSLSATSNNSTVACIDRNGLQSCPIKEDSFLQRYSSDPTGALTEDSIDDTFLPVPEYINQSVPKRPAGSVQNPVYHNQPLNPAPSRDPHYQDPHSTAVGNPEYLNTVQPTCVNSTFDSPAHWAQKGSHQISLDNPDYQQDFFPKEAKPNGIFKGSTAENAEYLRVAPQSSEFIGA

inhibition [1] [%] | Compound | also measured
79.9 | C=CC(=O)Nc1ccccc1-c1ccn(-c2nc(Nc3cc(C)c(N4CCC(N5CCN(C)CC5)CC4)cc3OC)ncc2Br)n1 | 
89.8 | COc1cc(N2CCC(N3CCN(C)CC3)CC2)c(C)cc1Nc1nccc(-n2cc(NC(=O)C3CC3)cn2)n1 | IC50 [2]: 37.6 nM; IC50 [3]: 338 nM; IC50 (cells): 136 nM
82.6 | COc1cc(N2CCC(N3CCN(C)CC3)CC2)c(C)cc1Nc1nccc(-n2cc(NC(C)=O)cn2)n1 | 
89 | CCS(=O)(=O)Nc1cnn(-c2ccnc(Nc3cc(C)c(N4CCC(N5CCN(C)CC5)CC4)cc3OC)n2)c1 | 
83.8 | C=C(C)C(=O)Nc1cnn(-c2ccnc(Nc3cc(C)c(N4CCC(N5CCN(C)CC5)CC4)cc3OC)n2)c1 | 
90.2 | COc1cc(N2CCC(N3CCN(C)CC3)CC2)c(C)cc1Nc1nccc(-n2cc(NS(=O)(=O)C(C)C)cn2)n1 | 
61.1 | C=CC(=O)Nc1cnn(-c2ccnc(Nc3cc(C)c(N4CCC(N(C)C)CC4)cc3OC)n2)c1 | 
89.1 | CCCS(=O)(=O)Nc1cnn(-c2ccnc(Nc3cc(C)c(N4CCC(N5CCN(C)CC5)CC4)cc3OC)n2)c1 | 
80 | C=CC(=O)Nc1cnn(-c2ccnc(Nc3cc(C)c(N4CCC(N5CCN(C)CC5)CC4)cc3OC)n2)c1 | IC50 [2]: 78.2 nM; IC50 [3]: 485 nM; IC50 (cells): 238 nM
54.3 | C=CC(=O)Nc1cnn(-c2ccnc(Nc3cc(C)c(N4CCN(S(C)(=O)=O)CC4)cc3OC)n2)c1 | 
47.3 | C=CC(=O)Nc1cnn(-c2ccnc(Nc3cc(C)c(N4CCN(C)CC4)cc3OC)n2)c1 | 

The next lines start with the molecule.

Compound | inhibition [1] [%] | also measured
CCC(=O)Nc1cnn(-c2ccnc(Nc3cc(C)c(N4CCC(N5CCN(C)CC5)CC4)cc3OC)n2)c1 | 85.4 | 
C=CC(=O)Nc1cnn(-c2ccnc(Nc3cc(C)c(N4CCN(C(C)C)CC4)cc3OC)n2)c1 | 46.1 | 
C=CC(=O)Nc1cnn(-c2ccnc(Nc3cc(C)c(N4CCOCC4)cc3OC)n2)c1 | 48.5 | 
CCS(=O)(=O)Nc1ccccc1-c1ccn(-c2nc(Nc3cc(C)c(N4CCC(N5CCN(C)CC5)CC4)cc3OC)ncc2Br)n1 | 71.4 | 
COc1cc(N2CCC(N3CCN(C)CC3)CC2)c(C)cc1Nc1nccc(-n2cc(NC(=O)C(C)C)cn2)n1 | 80.4 | 
CCCCS(=O)(=O)Nc1cnn(-c2ccnc(Nc3cc(C)c(N4CCC(N5CCN(C)CC5)CC4)cc3OC)n2)c1 | 90.2 | 
COc1cc(N2CCC(N3CCN(C)CC3)CC2)c(C)cc1Nc1nccc(-n2cc(NC(=O)C=C(C)C)cn2)n1 | 87.2 | IC50 [2]: 53.4 nM; IC50 [3]: 382 nM; IC50 (cells): 213 nM
C=CC(=O)Nc1cnn(-c2ccnc(Nc3cc(C)c(N4CCN(C(C)=O)CC4)cc3OC)n2)c1 | 48.8 | 
C=CC(=O)Nc1cnn(-c2ccnc(Nc3cc(C)c(N4CCC(N5CCCC5)CC4)cc3OC)n2)c1 | 75.7 | 
COc1cc(N2CCC(N3CCN(C)CC3)CC2)c(C)cc1Nc1nccc(-n2cc(NS(C)(=O)=O)cn2)n1 | 88.1 | 
COc1cc(N2CCC(N3CCN(C)CC3)CC2)ccc1Nc1ncc(Cl)c(Nc2ccccc2P(C)(C)=O)n1 [BRIGATINIB] |  | IC50 (cells): 542 nM
COc1cc(N2CCC(N3CCN(C)CC3)CC2)c(C)cc1Nc1ncc(Br)c(-n2ccc(-c3ccccc3NS(=O)(=O)C3CC3)n2)n1 | 81.8 | IC50 [2]: 93.8 nM; IC50 [3]: > 5000 nM; IC50 (cells): 340 nM
C/C=C/C(=O)Nc1cnn(-c2ccnc(Nc3cc(C)c(N4CCC(N5CCN(C)CC5)CC4)cc3OC)n2)c1 | 81.9 | 
COc1cc(N2CCC(N3CCN(C)CC3)CC2)c(C)cc1Nc1nccc(-n2cc(NS(=O)(=O)C3CC3)cn2)n1 | 93.2 | IC50 [2]: 18.8 nM; IC50 [3]: 159 nM; Ratio IC50 [4]: 5; IC50 (cells): 97.1 nM
